# Measurements: ChEMBL document CHEMBL4811295, “The ester derivatives obtained by C-ring modification of podophyllotoxin induce apoptosis and inhibited proliferation in PC-3M cells via down-regulation of PI3K/Akt signaling pathway” (Bioorg Med Chem Lett, 2021)
# pIC50: −log10 of the molar value. Active and inactive are the calls of the source. No cut-off for these calls is given here.
# Experiments:
# [1] = test system: PC-3M; assay: Cytotoxicity in human PC-3M cells assessed as inhibition of cell proliferation measured by CCK-8 assay; assay type: functional, cell-based
# [2] = test system: HMEC; assay: Cytotoxicity in human HMEC cells assessed as inhibition of cell proliferation measured by CCK-8 assay; assay type: functional, cell-based
# [3] = test system: A549; assay: Cytotoxicity in human A549 cells assessed as inhibition of cell proliferation measured by CCK-8 assay; assay type: functional, cell-based
# [4] = test system: MCF7; assay: Cytotoxicity in human MCF7 cells assessed as inhibition of cell proliferation measured by CCK-8 assay; assay type: functional, cell-based
# [5] = test system: HepG2; assay: Cytotoxicity in human HepG2 cells assessed as inhibition of cell proliferation measured by CCK-8 assay; assay type: functional, cell-based
# [6] = test system: PC-3M; assay: Induction of apoptosis in human PC-3M cells assessed by apoptotic changes in cells at 1 uM measured after 48 hrs by DAPI staining based microscopic method relative to PPT; assay type: functional, cell-based
# [7] = test system: PC-3M; assay: Induction of apoptosis in human PC-3M cells assessed by broken nucleus at 10 nM measured after 48 hrs by DAPI staining based microscopic method; assay type: functional, cell-based
# [8] = test system: PC-3M; assay: Induction of apoptosis in human PC-3M cells assessed by irregular nucleus at 10 nM measured after 48 hrs by DAPI staining based microscopic method; assay type: functional, cell-based
# [9] = test system: PC-3M; assay: Induction of apoptosis in human PC-3M cells assessed by formation of chromatin fragments at 10 nM measured after 48 hrs by DAPI staining based microscopic method; assay type: functional, cell-based
# [10] = test system: PC-3M; assay: Induction of apoptosis in human PC-3M cells assessed by formation of apoptotic bodies at 10 nM measured after 48 hrs by DAPI staining based microscopic method; assay type: functional, cell-based
# [11] = test system: PC-3M; assay: Antiproliferative activity against human PC-3M cells assessed as inhibition of cell proliferation measured after 9 days by Crystal violet staining based colony formation assay; assay type: functional; settings: dose 5-10 nM, time 9.0 day
# [12] = test system: PC-3M; assay: Anti-migration activity in human PC-3M cells measured after 24 hrs by microscopy based wound scratch method; assay type: functional, cell-based; settings: dose 1-10 nM
# [13] = test system: PC-3M; assay: Induction of apoptosis in human PC-3M cells assessed as viable cells at 1 nM measured after 48 hrs by Annexin V/PI staining based flow cytometry method (reference value: 95.6%); assay type: functional; settings: read-out: Activity
# [14] = test system: PC-3M; assay: Induction of apoptosis in human PC-3M cells assessed as early apoptotic cells at 1 nM measured after 48 hrs by Annexin V/PI staining based flow cytometry method (reference value: 1.25%); assay type: functional
# [15] = test system: PC-3M; assay: Induction of apoptosis in human PC-3M cells assessed as late apoptotic cells at 1 nM measured after 48 hrs by Annexin V/PI staining based flow cytometry method (reference value: 2.88%); assay type: functional
# [16] = test system: PC-3M; assay: Induction of apoptosis in human PC-3M cells assessed as necrotic cells at 1 nM measured after 48 hrs by Annexin V/PI staining based flow cytometry method (reference value: 0.25%); assay type: functional
# [17] = test system: PC-3M; assay: Induction of apoptosis in human PC-3M cells assessed as viable cells at 5 nM measured after 48 hrs by Annexin V/PI staining based flow cytometry method (reference value: 95.6%); assay type: functional; settings: read-out: Activity
# [18] = test system: PC-3M; assay: Induction of apoptosis in human PC-3M cells assessed as early apoptotic cells at 5 nM measured after 48 hrs by Annexin V/PI staining based flow cytometry method (reference value: 1.25%); assay type: functional
# [19] = test system: PC-3M; assay: Induction of apoptosis in human PC-3M cells assessed as late apoptotic cells at 5 nM measured after 48 hrs by Annexin V/PI staining based flow cytometry method (reference value: 2.88%); assay type: functional
# [20] = test system: PC-3M; assay: Induction of apoptosis in human PC-3M cells assessed as necrotic cells at 5 nM measured after 48 hrs by Annexin V/PI staining based flow cytometry method (reference value: 0.25%); assay type: functional
# [21] = test system: PC-3M; assay: Induction of apoptosis in human PC-3M cells assessed as viable cells at 10 nM measured after 48 hrs by Annexin V/PI staining based flow cytometry method (reference value: 95.6%); assay type: functional; settings: read-out: Activity
# [22] = test system: PC-3M; assay: Induction of apoptosis in human PC-3M cells assessed as early apoptotic cells at 10 nM measured after 48 hrs by Annexin V/PI staining based flow cytometry method (reference value: 1.25%); assay type: functional
# [23] = test system: PC-3M; assay: Induction of apoptosis in human PC-3M cells assessed as late apoptotic cells at 10 nM measured after 48 hrs by Annexin V/PI staining based flow cytometry method (reference value: 2.88%); assay type: functional
# [24] = test system: PC-3M; assay: Induction of apoptosis in human PC-3M cells assessed as necrotic cells at 10 nM measured after 48 hrs by Annexin V/PI staining based flow cytometry method (reference value: 0.25%); assay type: functional
# [25] = test system: PC-3M; assay: Inhibition of PI3K in human PC-3M cells assessed as reduction of phosphorylated PI3K expression at 1 to 10 nM measured by western blot assay; assay type: cell-based; settings: dose 1-10 nM
# [26] = target: RAC-alpha serine/threonine-protein kinase (Homo sapiens) (UniProt P31749); assay: Inhibition of Akt in human PC-3M cells assessed as reduction of […] expression at 1 to 10 nM measured by western blot assay; assay type: cell-based; settings: dose 1-10 nM
# RAC-alpha serine/threonine-protein kinase (Homo sapiens), sequence (P31749 whole entry): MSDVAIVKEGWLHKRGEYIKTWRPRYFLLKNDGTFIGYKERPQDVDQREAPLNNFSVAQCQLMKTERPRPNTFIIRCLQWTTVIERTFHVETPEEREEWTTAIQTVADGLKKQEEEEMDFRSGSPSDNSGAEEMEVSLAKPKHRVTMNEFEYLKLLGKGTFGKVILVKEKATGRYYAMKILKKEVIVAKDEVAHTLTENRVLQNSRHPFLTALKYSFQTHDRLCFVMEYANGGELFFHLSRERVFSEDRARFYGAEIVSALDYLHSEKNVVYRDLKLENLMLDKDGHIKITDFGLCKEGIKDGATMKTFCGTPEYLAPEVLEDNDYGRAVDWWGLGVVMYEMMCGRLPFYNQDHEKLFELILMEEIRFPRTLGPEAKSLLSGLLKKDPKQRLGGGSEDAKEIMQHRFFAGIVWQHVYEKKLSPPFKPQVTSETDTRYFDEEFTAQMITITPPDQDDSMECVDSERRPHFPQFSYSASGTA
# [27] = test system: PC-3M; assay: Induction of apoptosis in human PC-3M cells assessed as decrease of Bcl-2 expression at 1 to 10 nM measured by western blot assay; assay type: functional, cell-based; settings: dose 1-10 nM
# [28] = test system: PC-3M; assay: Induction of apoptosis in human PC-3M cells assessed as increase of Bax expression at 1 to 10 nM measured by western blot assay; assay type: functional, cell-based; settings: dose 1-10 nM
# [29] = test system: PC-3M; assay: Induction of apoptosis in human PC-3M cells assessed as increase of cleaved caspase-3 expression at 1 to 10 nM measured by western blot assay; assay type: functional, cell-based; settings: dose 1-10 nM
smiles,measurement,setting,value
COc1cc([C@@H]2c3cc4c(cc3[C@H](OC(=O)CN(C)C(=O)OC(C)(C)C)[C@H]3COC(=O)[C@H]23)OCO4)cc(OC)c1OC,pIC50,[1],7.88
same,pIC50,[2],4.56
same,pIC50,[3],7.37
COc1cc([C@@H]2c3cc4c(cc3[C@H](OC(=O)CNC(=O)OC(C)(C)C)[C@H]3COC(=O)[C@H]23)OCO4)cc(OC)c1OC,pIC50,[1],8.89
same,pIC50,[2],6.11
same,pIC50,[3],8.02
same,pIC50,[4],3.84
same,pIC50,[5],4.29
same,Activity,[6],Active
same,Activity,[7],Dose-Dependent Effect
same,Activity,[8],Dose-Dependent Effect
same,Activity,[9],Dose-Dependent Effect
same,Activity,[10],Dose-Dependent Effect
same,Activity,[11],Dose-Dependent Effect
same,Activity,[12],Dose-Dependent Effect
same,viability at 0.001 µM,[13],92.5%
same,Activity,[14],1.86%
same,Activity,[15],5.53%
same,Activity,[16],0.14%
same,viability at 0.005 µM,[17],83.4%
same,Activity,[18],3.74%
same,Activity,[19],12.7%
same,Activity,[20],0.11%
same,viability at 0.01 µM,[21],64.4%
same,Activity,[22],5.41%
same,Activity,[23],29.9%
same,Activity,[24],0.21%
same,inhibition,[25],Active
same,inhibition,[26],Active
same,Activity,[27],Dose-Dependent Effect
same,Activity,[28],Dose-Dependent Effect
same,Activity,[29],Dose-Dependent Effect
COc1cc([C@@H]2c3cc4c(cc3[C@H](OC(=O)[C@H](CC(C)C)NC(=O)OC(C)(C)C)[C@H]3COC(=O)[C@H]23)OCO4)cc(OC)c1OC,pIC50,[1],8.05
same,pIC50,[2],5.63
same,pIC50,[3],5.19
same,pIC50,[4],3.85
same,pIC50,[5],4.22
C/C=C/C=C/C(=O)O[C@H]1c2cc3c(cc2[C@@H](c2cc(OC)c(OC)c(OC)c2)[C@H]2C(=O)OC[C@@H]21)OCO3,pIC50,[1],5.96
same,pIC50,[2],6.37
same,pIC50,[3],6.84
same,pIC50,[4],3.89
same,pIC50,[5],5.63
COc1cc([C@@H]2c3cc4c(cc3[C@H](OC(=O)[C@H](C)NC(=O)OC(C)(C)C)[C@H]3COC(=O)[C@H]23)OCO4)cc(OC)c1OC,pIC50,[1],5.93
same,pIC50,[2],5.07
same,pIC50,[3],7.55
same,pIC50,[4],4.39
same,pIC50,[5],4.07
COc1cc([C@@H]2c3cc4c(cc3[C@H](OC(=O)c3ccncc3)[C@H]3COC(=O)[C@H]23)OCO4)cc(OC)c1OC [4-O-PODOPHYLLOTOXINYL-ISONICOTINATE],pIC50,[1],7.03
same,pIC50,[2],5.43
same,pIC50,[3],7.79
same,pIC50,[4],< 3.70
same,pIC50,[5],3.73
C/C=C/C(=O)O[C@H]1c2cc3c(cc2[C@@H](c2cc(OC)c(OC)c(OC)c2)[C@H]2C(=O)OC[C@@H]21)OCO3,pIC50,[1],7.91
same,pIC50,[2],7.10
same,pIC50,[3],7.40
same,pIC50,[4],4.09
same,pIC50,[5],3.96
CCCCCCCCCCCC(=O)O[C@H]1c2cc3c(cc2[C@@H](c2cc(OC)c(OC)c(OC)c2)[C@H]2C(=O)OC[C@@H]21)OCO3,pIC50,[1],5.90
same,pIC50,[2],6.03
same,pIC50,[3],6.27
same,pIC50,[4],< 3.70
same,pIC50,[5],4.27
COc1cc([C@@H]2c3cc4c(cc3[C@H](OC(=O)[C@@H](NC(=O)OC(C)(C)C)C(C)C)[C@H]3COC(=O)[C@H]23)OCO4)cc(OC)c1OC,pIC50,[1],5.60
same,pIC50,[2],5.61
same,pIC50,[3],4.95
same,pIC50,[4],4.05
same,pIC50,[5],4.96
COc1cc([C@@H]2c3cc4c(cc3[C@H](OC(=O)c3ccc(Br)s3)[C@H]3COC(=O)[C@H]23)OCO4)cc(OC)c1OC,pIC50,[1],6.21
same,pIC50,[2],5.75
same,pIC50,[3],6.30
same,pIC50,[4],< 3.70
same,pIC50,[5],4.47
CCCCCCCCCCCCCC(=O)O[C@H]1c2cc3c(cc2[C@@H](c2cc(OC)c(OC)c(OC)c2)[C@H]2C(=O)OC[C@@H]21)OCO3,pIC50,[1],5.76
same,pIC50,[2],5.56
same,pIC50,[3],5.97
same,pIC50,[4],< 3.70
same,pIC50,[5],4.05
